Assay [1] deals with T1, Recombinant human Plk-1 (6×His) (Homo sapiens, UniProt P53350).
T1 construct: 6xHis; made in house; host or cells: Hi5 insect cells, baculovirus
The assay is described as follows: PLK enzyme assay (33P-γ-ATP incorporation into biotin casein, SPA beads). The assay is classed as biochemical. The conditions noted are these: 0.5 μM ATP, 0.7 μM casein, 90 minutes at room temperature, read-out: Inhibition PLK-1 IC50. As to the method: Recombinant human Plk-1 (6×His) was purified from insect cells (Hi5) infected with a baculovirus.
10 ng (recombinant created, purified) PLK enzyme is incubated for 90 minutes at room temperature with biotin casein and 33P-γ-ATP as a sub-stratum in a volume of 15 μl in 384 well Greiner Small Volume Microtiterplates (final concentration in buffer: 660 ng/ ml PLK; 0.7 μM Casein, 0.5 μM ATP incl. 400 nCi/ml 33P-γ-ATP; 10 mM MgCl2, 1 mM MnCl2; 0.01% NP40; 1 mM DTT, Protease inhibitors; 0.1 mM Na2VO3 in 50 mM HEPES pH 7.5). At the end of the reaction a 5 μl stop solution (500 μM ATP; 500 mM EDTA; 1% triton ×100; 100 mg/ ml streptavidin coated SPA Beads in PBS) was added. After the microtiter plate is closed with foil, the beads are sedimented through centrifugation (10 min., 1500 rpm). The fixing of the 33P-γ-ATP in casein was set as a measure of the enzyme activity by β-Counting.
Test substances were introduced in various concentrations (0 μM, and in the range of 0.01-30 μM). The final concentration of the dimethylsulfoxide solvent in all concentrations amounted to 1.5%.

The subject of assay [2] is human MaTu breast tumor cells. The assay is described as follows: Proliferation assay (crystal violet staining). The assay is classed as cell-based. The conditions noted are these: 96 h, incubated for 4 days with test substance, read-out: Inhibition of tumor cell proliferation (MaTu) IC50. As to the method: Cultivated human MaTu breast tumor cells were spread on plates to a thickness of 5000 cells per measuring point in a 96-hole multititerplate in 200 μl of the appropriate growth medium. After 24 hours the cells of one plate (the zero-point plate) were stained with crystal violet (see below), while the medium of the other plates was replaced by fresh culture medium (200 μl), to which was added the test substances in various concentrations (0 μM and in the range of 0.01 to 30 μm; the final concentration of the dimethylsulfoxide solvent was 0.5%). The cells were incubated for 4 days in the presence of the test substances. The cell proliferation was determined by the staining of the cells with crystal violet. The cells were fixed by the addition of 20 μl per measuring point of an 11% glutaraldehyde solution for 15 minutes at room temperature. After the fixed cells were washed three times with water, the plates were dried at room temperature. The cells were stained by the addition of 100 μl per measuring point of a 0.1% crystal violet solution (pH set at pH3 through the addition of acetic acid). After the fixed cells were washed three times with water, the plates were dried at room temperature. The coloring was dissolved by the addition of 100 μl per measuring point of a 10% acetic acid solution. Extinction was determined photometrically at a wave length of 595 nm. The percentage change of the cell growth was calculated by normalizing the measured values at the extinction value of the zero-point plate (=0%) and the extinction of the untreated cells (0 μM) (=100%).

pIC50: −log10 of the molar value.

T1 sequence (P53350 whole entry): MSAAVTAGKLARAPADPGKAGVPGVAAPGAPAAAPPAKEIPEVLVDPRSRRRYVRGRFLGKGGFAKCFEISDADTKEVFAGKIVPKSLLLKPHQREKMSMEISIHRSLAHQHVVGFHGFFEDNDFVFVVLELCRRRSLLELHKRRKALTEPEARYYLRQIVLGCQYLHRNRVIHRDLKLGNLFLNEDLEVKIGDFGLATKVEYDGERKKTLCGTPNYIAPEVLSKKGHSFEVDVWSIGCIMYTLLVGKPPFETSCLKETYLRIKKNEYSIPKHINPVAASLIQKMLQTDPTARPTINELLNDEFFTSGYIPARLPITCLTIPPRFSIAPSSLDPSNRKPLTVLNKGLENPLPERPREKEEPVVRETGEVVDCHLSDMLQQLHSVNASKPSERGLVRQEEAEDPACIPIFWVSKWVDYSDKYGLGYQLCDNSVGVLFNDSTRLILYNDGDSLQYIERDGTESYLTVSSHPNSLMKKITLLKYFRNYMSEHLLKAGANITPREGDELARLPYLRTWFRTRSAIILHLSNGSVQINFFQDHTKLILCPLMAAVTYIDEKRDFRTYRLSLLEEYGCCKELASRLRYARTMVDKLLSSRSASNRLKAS

Take `C#CCNC(=O)C(C#N)=c1sc(=CNc2ccc(F)c(NC(=O)C(C)(C)C)c2)c(=O)n1CC` (mixture of isomers) [Example 63, 2-Cyano-2-[5-[1-[3-(2,2-dimethyl-propionylamino)-4-fluoro-phenylamino]-meth-(E/Z)-ylidene]-3-ethyl-4-oxo-thiazolidin-(2-(E or Z))-ylidene]-N-prop-2-ynyl-acetamide]: the pIC50 in assay [1] is 7.00; in assay [2] it was 6.19.
Regarding `CCn1c(=C(C#N)C(=O)NCC(F)(F)F)sc(=CNc2ccc(CCN3CCCC3)cc2)c1=O` [Comparison 527 from PCT/EP2004/ 012242, reference compound], the pIC50 in assay [2] is 5.55.
`CCn1c(=C(C#N)C(=O)NCC(F)(F)F)sc(=CNc2ccc(C(=O)NCCN3CCCC3)c(NC(=O)C(C)(C)C)c2)c1=O` [Comparison 326 from PCT/EP2004/ 012242, reference compound]: the pIC50 was 7.14 in assay [1] and 5.80 in assay [2].
Taken in the same sequence, the figures for `CCn1c(=C(C#N)C(=O)NCC(F)(F)F)sc(=CNc2cccc(CCN3CCCC3)c2)c1=O` (mixture of isomers) [Example 30, 2-Cyano-2-[3-ethyl-4-oxo-5-[1-[3-(2-pyrrolidin-1-yl-ethyl)-phenylamino]-meth-(E/Z)-ylidene]-thiazolidin-(2-(E or Z))-ylidene]-N-(2,2,2-trifluoro-ethyl)-acetamide] were 7.80 and 6.70.
Taken in the same sequence, the figures for `C#CCNC(=O)C(C#N)=c1sc(=CNc2ccc(OCCN(C)C)cc2)c(=O)n1CC` [Comparison 307 from PCT/EP2004/ 012242, reference compound] were 7.15 and 5.77.
The like results for `CCNC(=O)C(C#N)=c1sc(=CNc2cccc(NC(=O)CN3CCCC3)c2)c(=O)n1CC` (mixture of isomers) [Example 55, 2-Cyano-N-ethyl-2-[3-ethyl-4-oxo-5-[1-[3-(2-pyrrolidin-1-yl-acetylamino)-phenylamino]-meth-(E/Z)-ylidene]-thiazolidin-(2-(E or Z))-ylidene]-acetamide] were, in that order, 6.82 and 6.11.
For `C#CCNC(=O)C(C#N)=c1sc(=CNc2ccc(C(=O)NCCN3CCCC3)c(NC(=O)C(C)(C)C)c2)c(=O)n1CC` [Comparison 323 from PCT/EP2004/ 012242, reference compound], the values for the pIC50 in assay [1] and in assay [2] were 6.85 and 5.60, respectively.
On to `C#CCNC(=O)C(C#N)=c1sc(=CNc2cccc(OCCN(C)C)c2)c(=O)n1CC` (mixture of isomers) [Example 126, 2-Cyano-2-[5-[1-[3-(2-dimethylamino-ethoxy)-phenylamino]-meth-(E/Z)-ylidene]-3-ethyl-4-oxo-thiazolidin-(2Z or E)-ylidene]-N-prop-2-ynyl-acetamide], for which the pIC50 in assay [1] was 7.66; in assay [2], 6.23.
Taken in the same sequence, the figures for `CCn1c(=C(C#N)C(=O)NCC(F)F)sc(=CNc2ccc(OCCN(C)C)cc2)c1=O` [Comparison 310 from PCT/EP2004/ 012242, reference compound] were 7.13 and 5.25.
Taken in the same sequence, the figures for `CCn1c(=C(C#N)C(=O)NCC(F)(F)F)sc(=CNc2cccc(NC(=O)C(C)(C)C)n2)c1=O` (mixture of isomers) [Example 41, 2-Cyano-2-[5-[1-[6-(2,2-dimethyl-propionylamino)-pyridin-2-ylamino]-meth-(E/Z)-ylidene]-3-ethyl-4-oxo-thiazolidin-(2-(E or Z))-ylidene]-N-(2,2,2-trifluoro-ethyl)-acetamide] were 7.70 and 6.08.
Take `CCn1c(=C(C#N)C(=O)NCC(F)F)sc(=CNc2cccc(OCCN(C)C)c2)c1=O` (mixture of isomers) [Example 127, 2-Cyano-N-(2,2-difluoro-ethyl)-2-[5-[1-[3-(2-dimethylamino-ethoxy)-phenylamino]-meth-(E/Z)-ylidene]-3-ethyl-4-oxo-thiazolidin-(2-(E or Z))-ylidene]-acetamide]: the pIC50 in assay [1] is 7.62; in assay [2], 6.48.

For the origin of these results see US20070015759A1, “Metasubstituted thiazolidinones, their manufacture and use as a drug” (priority 2004, published 2007).
